The structures appear in SMILES notation. Where a name gives a salt, the structure may show the parent alone.

The values that follow come from patent US20230416196A1, “DIMER OF BIGUANIDINES AND THEIR THERAPEUTIC USES” (INSTITUT CURIE, priority 2020, published 2023).

The subject of test [1] is activated macrophages (act. MDM), CD86 activation marker. Kind of test: CD86 macrophage activation marker by flow cytometry in LPS/IFNγ-activated monocyte-derived macrophages (Example 4). It is filed as cell-based, human. Conditions: LCCs at 10 μM, 24 h co-treatment; several values per compound. As for the experimental part:
Cell culture. U-937 cells were grown in an incubator equilibrated at 37° C. with 5% CO2, grown to confluence and split with Trypsin/EDTA (Gibco, […]01) once or twice a week according to confluence. U-937 (ATCC, HTB-132) were cultured in RPMI 1640 GLUTAMAX (ThermoFisher Scientific, 61870044) supplemented with 10% Fetal Bovine Serum (FBS, Gibco, 10270-106) and Penicillin-Streptomycin mixture (BioWhittaker/Lonza, DE17-602E). […] Peripheral blood samples were collected from distinct healthy donors (Etablissement Français du Sang). Pan monocytes were isolated by negative magnetic sorting using microbeads according to the manufacturer's instructions (Miltenyi Biotec, 130-096-537), and cultured in RPMI 1640 supplemented with glutamine (Thermo Fisher Scientific, 61870010), 10% fetal bovine serum and exposed to granulocyte-macrophage colony-stimulating factor (GM-CSF, Miltenyi Biotec, 130-093-866, 100 ng/mL) to induce differentiation into macrophages (MDM). […] Flow cytometry. Cells were washed with ice-cold 1×PBS, incubated with Fc block (Human TruStain FcX, Biolegend, 422302, 1/20) for 15 min, incubated with antibodies for 20 min at 4° C. and washed before analysis using a BD LSRFortessa X-20. Macrophages were analyzed with an antibody panel consisting of antibodies against the following cell surface proteins: CD44, CD80, CD86 and TfR1. The data were analyzed with FlowJo software v. 10.0.00003. […]
In general terms: In flow cytometry, cells or beads pass a laser one at a time.

The next test deals with U937 cells. Put plainly: Cell viability assay (CellTiter-Blue) on lymphoma cell line U937. The format is cell-based. Conditions: Homo sapiens, U-937, 72 h treatment. As for the experimental part:
Cell culture. U-937 cells were grown in an incubator equilibrated at 37° C. with 5% CO2, grown to confluence and split with Trypsin/EDTA (Gibco, […]01) once or twice a week according to confluence. U-937 (ATCC, HTB-132) were cultured in RPMI 1640 GLUTAMAX (ThermoFisher Scientific, 61870044) supplemented with 10% Fetal Bovine Serum (FBS, Gibco, 10270-106) and Penicillin-Streptomycin mixture (BioWhittaker/Lonza, DE17-602E). […] Peripheral blood samples were collected from distinct healthy donors (Etablissement Français du Sang). Pan monocytes were isolated by negative magnetic sorting using microbeads according to the manufacturer's instructions (Miltenyi Biotec, 130-096-537), and cultured in RPMI 1640 supplemented with glutamine (Thermo Fisher Scientific, 61870010), 10% fetal bovine serum and exposed to granulocyte-macrophage colony-stimulating factor (GM-CSF, Miltenyi Biotec, 130-093-866, 100 ng/mL) to induce differentiation into macrophages (MDM). […] Cell viability assay (IC50). Cell viability assay was carried out by plating 1000 cells/well in 96-well plates. Cells were treated for 72 h in a range between to 25 nM and […] using serial dilutions. The inventors followed the manufacturer's protocol. In brief, CellTiter-Blue® reagent (G8081, Promega) was added after 72 h treatment and cells were incubated for 3 h before recording fluorescence intensities (λex. 560/20 nm; λem. 590/10 nm) using a Perkin Elmer Wallac 1420 Victor2 Microplate Reader.
(Resazurin is reduced to fluorescent resorufin, in cell work by metabolically active cells.)

The next test deals with macrophage activation. Put plainly: Macrophage activation, copper(I)-targeting agents. It is filed as cell-based.
In another test the test system is HMLER CD44^high/CD24^low. Put plainly: Cell viability assay (CellTiter-Blue) on breast cancer stem cell model HMLER CD44high/CD24low. Conditions: for IC50: Homo sapiens, cell viability, 72 h treatment, read-out: IC50 against HMLER CD44^high/CD24^low. It is filed as cell-based, human. As for the experimental part:
Cell viability assay (IC50). Cell viability assay was carried out by plating 1000 cells/well in 96-well plates. Cells were treated for 72 h in a range between to 25 nM and […] using serial dilutions. The inventors followed the manufacturer's protocol. In brief, CellTiter-Blue® reagent (G8081, Promega) was added after 72 h treatment and cells were incubated for 3 h before recording fluorescence intensities (λex. 560/20 nm; λem. 590/10 nm) using a Perkin Elmer Wallac 1420 Victor2 Microplate Reader.
Cell culture. MCF7 (ATCC) cells, DU-145 (ATCC) cells and FC1245 cells were cultured in Dulbecco's Modified Eagle Medium GlutaMAX (DMEM, ThermoFisher Scientific, 61965059) supplemented with 10% Fetal Bovine Serum (FBS, Gibco, 10270-106) and Penicillin-Streptomycin mixture (BioWhittaker/Lonza, DE17-602E) unless stated otherwise. Primary lung circulating tumor cells (Celprogen, 36107-34CTC, Lot 219411) were grown using stem cell complete media (Celprogen, M36102-29PS) until the third passage. Circulating cancer cells were grown in stem cell ECM T75-flasks (Celprogen, E36102-29-T75) and ECM 6-well plates (Celprogen, E36102-29-6Well). HMLER cells ([…]) naturally repressing E-cadherin, obtained from human mammary epithelial cells infected with a retrovirus carrying hTERT, SV40 and the oncogenic allele H-rasV12, and HMLER CD44 and TFRC ko clones were cultured in DMEM/F12 (Thermo Fisher Scientific, 31331093) supplemented with 10% FBS (Thermo Fisher Scientific, 10270106), 10 μg/mL insulin (Sigma-Aldrich, 10516), 0.5 μg/mL hydrocortisone (Sigma-Aldrich, H0888) and 0.5 μg/mL puromycin (Life Technologies, A11138-02), unless stated otherwise. HMLER CD44^high cells were also supplemented with 10 ng/mL EGF (Miltenyi Biotech, 130-097-750).

As for `CCCNC(=N)NC(=N)NCCCCCCCCCCNC(=N)NC(=N)NCCC` [LCC-10,3], in test [1], the “Effect on CD86 macrophage activation marker (Flow cytometry) (% of activation marker compared to its level in activated macrophages)” value is recorded as 22%. This compound also returned an IC50 with U937 cells of 0.6 µM. In the case of `CN(CCCCCCCCN(C)C(=N)NC(=N)N)C(=N)NC(=N)N` [LCC-8Me], the “Effect on CD86 macrophage activation marker (Flow cytometry) (% of activation marker compared to its level in activated macrophages)” value in test [1] was 89%. Also, in the test with U937 cells, the IC50 came to 150 µM. In the test on U937 cells, `N=C1NCCCCCCCCCCCCNC(=N)NC(=N)NCCCCCCCCCCCCNC(=N)N1` [Coronaformin-12,12] showed an IC50 of 0.5 µM. Same read-out and setting: the figure for `CN(CCCCCCCCCCCCN(C)C(=N)NC(=N)N)C(=N)NC(=N)N` [LCC-12Me] is 6 µM.

In the test with U937 cells, `N=C1NCCCCCCCCCCNC(=N)NC(=N)NCCCCCCCCCCNC(=N)N1` [Coronaformin-10,10] displayed an IC50 of 1 µM. Regarding `CC(C)(S)[C@@H](N)C(=O)O` [D-Pen], the “efficacy on macrophage activation” value in the test on macrophage activation is “lack of efficacy”. On to `[NH4+].[NH4+].[SH-].[SH-].[S]=[Mo]=[S]` [ATTM], for which, in the test on macrophage activation, the “efficacy on macrophage activation” value is “lack of efficacy”.

For `CN(C)C(=N)NC(=N)N` [Metformin, 1,1-dimethylbiguanid hydrochloride, reference compound], the IC50 in the test with U937 cells came out at 10000 µM; with HMLER CD44^high/CD24^low, 22600 µM. Take `CCNC(=N)NC(=N)NCCCCCCCCCCNC(=N)NC(=N)NCC` [LCC-10,2]: the IC50 in the test on U937 cells is 1 µM. With `CCCNC(=N)NC(=N)NCCCCCCCCNC(=N)NC(=N)NCCC` [LCC-8,3], in the test with U937 cells, the IC50 is 2 µM. As to `N=C1NCCCCCCCCNC(=N)NC(=N)NCCCCCCCCNC(=N)N1` [Coronaformin-8,8], the IC50 in the test on U937 cells is 3 µM.

With `N=C(N)NC(=N)NCCCCCCCCCCNC(=N)NC(=N)N` [LCC-10], the IC50 in the test on U937 cells amounted to 20 µM; in the test on HMLER CD44^high/CD24^low, 58 µM. In the test on HMLER CD44^high/CD24^low (HMLER CD44high/CD24low), the “improved IC50 compared with metformin” value is on record as “about 400 fold”.
